The record followed here is PubChem BioAssay AID1996.

Values after ≈ are worked out from the molar mass of the structure shown.

The conditions of this data set: buffer; pH 7.4; 200.0 µM.
As a reminder, the kinetic solubility is the concentration staying in solution when a stock, usually in DMSO, is diluted into the medium. The compound `Cc1ccc(CC2C(=O)N(c3ccccc3)C(=O)C2C)cc1` (configuration not stated) had a solubility (kinetic) of 7.6 µg/mL (≈ 25.9 µM).
As to `CN1C(=O)N(CC(=O)Nc2nccs2)C(=O)C12CCCCC2`, the kinetic solubility was > 48.4 µg/mL.
The value for `COc1ccc(N2CC(C(=O)N3CCOCC3)CC2=O)cc1` (configuration not stated) was > 45.7 µg/mL; that for `Cn1c(SCc2ccc(C#N)cc2)nnc1-c1ccncc1` was > 46.1 µg/mL; that for `Cc1cc(=O)[nH]c(SCc2ccccc2)n1` was > 34.8 µg/mL.
Next, `COc1ccccc1CC(=O)N1CCN(c2ccccc2F)CC1`: 46.8 µg/mL (≈ 143 µM); `CCc1ccc(OCCCC(=O)Nc2cccc(C(=O)O)c2)cc1`: > 49.1 µg/mL; `CC(=O)Nc1ccc(NC(=O)Cc2ccc(-c3ccccc3)cc2)cc1`: < 0.4 µg/mL.
In the case of `CN1CCN(S(=O)(=O)c2csc(C(N)=O)c2)CC1`, the kinetic solubility is > 43.4 µg/mL.
Take `Cc1ccc(CN(C(=O)c2ccco2)C2CCS(=O)(=O)C2)cc1` (configuration not stated): the solubility (kinetic) is > 50 µg/mL.
Regarding `Cc1cc(=O)c(C(=O)O)nn1-c1cccc(C(F)(F)F)c1`, the kinetic solubility was > 44.7 µg/mL.
The value for `O=C(O)c1c(NC(=O)N2CCCC2)sc2c1CCCC2` was > 44.2 µg/mL; that for `Cc1onc(-c2ccccc2Cl)c1C(=O)N1CCC(C(N)=O)CC1` was 50.7 µg/mL (≈ 146 µM).
Next, `CC(C)(C)NCC(O)c1cc(O)cc(O)c1.O=S(=O)(O)O` (configuration not stated): > 41.1 µg/mL; `CC(=O)Oc1ccc2nc(-c3ccc(Br)o3)oc(=O)c2c1`: 4.2 µg/mL (≈ 12 µM).
The value for `C=CCc1cc(Cl)ccc1OCCn1ccnc1.O=C(O)C(=O)O` was 39.5 µg/mL; that for `COc1ccccc1CN1CCNC(=O)C1CC(=O)O` (configuration not stated) was > 41.7 µg/mL.
As to `Cc1ccc(CNC(=O)CN2C(=O)NC3(CCCC3)C2=O)cc1`, the solubility (kinetic) amounted to 43.6 µg/mL (≈ 138 µM).
The value for `CCOc1ccc(S(=O)(=O)N(CC)CC(=O)N2CCCC2)cc1` was > 51.1 µg/mL; that for `Cc1ccccc1C(=O)c1c[nH]c(C(=O)NCCc2ccccn2)c1` was > 50 µg/mL; that for `CCOc1ccc2oc(C(=O)NC(C)(C)CC)c(C)c2c1` was 11.5 µg/mL (≈ 39.7 µM).
Next, `CCC(C)NC(=O)C1CC(=O)N(CCc2ccc(F)cc2)C1` (configuration not stated): > 46 µg/mL.
Next, `CSCC[C@H](NC(=O)c1ccc(OCC2CCCO2)cc1)c1nc2ccccc2[nH]1` (some centres not stated): 56.9 µg/mL (≈ 134 µM).
Take `COC(=O)c1c(NC(C)=O)sc(C(=O)Nc2ccccc2F)c1C`: the kinetic solubility is < 0.4 µg/mL.
Consider `O=C(Cn1c(CO)nc2ccccc21)NCCc1ccccc1`, for which the solubility (kinetic) was > 46.4 µg/mL.
Next, `Cl.O=C(OCCN1CCCCC1)c1cccc(F)c1`: > 43.2 µg/mL; `CC1CN(C(=S)Nc2ccc(SC(F)F)cc2)CC(C)O1` (configuration not stated): > 49.9 µg/mL.
The value for `CCOC(=O)c1cc([N+](=O)[O-])sc1N` was 4.6 µg/mL (≈ 21.3 µM); that for `Cc1cc(C)nc(SCC(=O)NC2CCCC2)n1` was > 39.8 µg/mL; that for `CCC(=O)OCC(=O)N=c1sccn1Cc1ccc(C)cc1` was 36.4 µg/mL (≈ 114 µM).
Next, `Cc1cc(NC(=O)c2ccc3nccnc3c2)ccc1Br`: 4.5 µg/mL (≈ 13.2 µM); `Cc1ccccc1NS(=O)(=O)c1cccc2nsnc12`: > 45.8 µg/mL; `Cc1ccc(S(=O)(=O)N(CC(=O)N2CCOCC2)c2ccc(C(C)C)cc2)cc1`: 4.6 µg/mL (≈ 11 µM).
Take `N#Cc1ccccc1OCC(=O)Nc1ccccc1C(=O)NC1CC1`: the solubility (kinetic) came out at 48.3 µg/mL (≈ 144 µM).
Next, `CC(=O)Nc1ccc(NC(=O)c2c([N+](=O)[O-])cnn2C)cc1`: > 45.5 µg/mL; `Cl.FC(F)Sc1ccc(NC2=NCCCCC2)cc1`: 45 µg/mL; `CCc1noc(C)c1C(=O)Nc1nc(-c2ccc(OC)cc2)cs1`: 2.3 µg/mL (≈ 6.7 µM).
The value for `O=C1CCC/C1=C\Nc1ccc(Cl)c([N+](=O)[O-])c1` was 7.2 µg/mL (≈ 27 µM).
Next, `COc1ccccc1C(=O)NCc1ccco1`: > 34.7 µg/mL; `Cc1c(C=O)c2ccccc2n1CCOc1ccccc1`: 6.2 µg/mL (≈ 22.2 µM).
For `CSc1cccc(NS(=O)(=O)c2ccc(C(C)=O)cc2)c1`, the kinetic solubility was found to be 41.1 µg/mL (≈ 128 µM).
The value for `O=C(NC1CC2CCCC(C1)N2Cc1ccccc1)c1cccc(F)c1` (configuration not stated) was 45.1 µg/mL (≈ 128 µM); that for `Cc1ccc(NC(=O)CC2SCCNC2=O)cc1[N+](=O)[O-]` (configuration not stated) was 36.2 µg/mL (≈ 117 µM).
As for `CC(=O)N(C1=NCCCS1)c1ccccc1Cl`, the solubility (kinetic) is > 40.3 µg/mL.
The value for `COCC(C)n1c(SCC(=O)NC2CCCCC2C)nc2ccccc2c1=O` (configuration not stated) was > 60.5 µg/mL.
Next, `Cc1cccc(Nc2nc(C)nc3c2oc2ccccc23)c1.Cl`: 1.1 µg/mL; `O=C(NC(=S)Nc1ccccc1CO)C1CCCCC1`: > 43.9 µg/mL.
The value for `O=C(O)CCCCCNC(=O)C(=O)C1C(=O)Nc2ccccc21` (configuration not stated) was > 47.7 µg/mL.
Take `CCN(C(=O)Cn1c(=O)oc2ccccc21)c1cccc(C)c1`: the solubility (kinetic) is > 46.6 µg/mL.
The value for `Cc1cc(C)c(C(=O)NCC(=O)c2ccccc2)c(C)c1` was 8.8 µg/mL (≈ 31.3 µM).
As to `CCO/C=C1\C(=O)N(c2ccc(OCC)cc2)C(=O)c2ccccc21`, the kinetic solubility was > 50.6 µg/mL.
The value for `CC(NC(=O)COC(=O)C1CCCCC1)c1ccccc1` (configuration not stated) was > 43.4 µg/mL.
